# Assay: Radical scavenging activity (DPPH method)
# Conditions: positive control
# Method: Residual phenolic in growth media ([…]) were recovered as follows: samples of the growth media were taken at different time points along L. johnsonii N6.2 growth kinetics. The supernatant was recovered by centrifugation (4000 g for 30 min at 4° C.) and saved as aliquots at -20° C. until processing. Soluble phenolic compounds were recovered by solid-phase extraction using […] column (ThermoScientific, WI, USA) as described by Correa-Betanz et al. (2015). The total scavenging activity of the culture media was assessed by using the DPPH method described by Dong et al. (2017). The samples ([…] or its polyphenol enriched fractions) were diluted (1⁄2 and 1/10) in methanol. […] The quenching ability of L-ascorbic acid was used as a positive control. The absorbance was measured at 515 nm using a Sinergy HT microplate reader (Biotek, Winooski, Vt., USA). The scavenging activity (SA) was estimated by the following formula: % SA=[(Abscontrol-blank-Abssample-blank)/Abscontrol-blank]×100. Total radical scavenging activity (% SA) is expressed in percent of quenching activity per μg of gallic acid equivalents.
smiles,measurement,value
O=C1O[C@H]([C@@H](O)CO)C(O)=C1O [L-ascorbic acid],DPPH scavenging activity (% SA),20.2±0.85 % SA

# From patent US11602553B2, “Composition of lactobacillus and berry extract” (UNIVERSITY OF FLORIDA RESEARCH FOUNDATION, INCORPORATED, priority 2018, dated 2023)
